From PubChem BioAssay (NCI)
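Assay format: 96-well plates, 48-hour exposure. At the GI50, growth is halved. At the TGI there is no net growth.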

Assays:
Experiment in all cases: NCI-60 cell line screen, 48 h
[1] = tested on: 786-0 renal
[2] = tested on: A498 renal
[3] = tested on: A549 NSCLC
[4] = tested on: ACHN renal
[5] = tested on: BT-549 breast
[6] = tested on: CAKI-1 renal
[7] = tested on: CCRF-CEM leukemia
[8] = tested on: COLO 205 colon
[9] = tested on: DU-145 prostate
[10] = tested on: EKVX NSCLC
[11] = tested on: HCC-2998 colon
[12] = tested on: HCT-116 colon
[13] = tested on: HCT-15 colon
[14] = tested on: HL-60(TB) leukemia
[15] = tested on: HOP-62 NSCLC
[16] = tested on: HOP-92 NSCLC
[17] = tested on: HS 578T breast
[18] = tested on: HT29 colon
[19] = tested on: IGROV1 ovarian
[20] = tested on: K-562 leukemia
[21] = tested on: KM12 colon
[22] = tested on: LOX IMVI melanoma
[23] = tested on: M14 melanoma
[24] = tested on: MALME-3M melanoma
[25] = tested on: MCF7 breast
[26] = tested on: MDA-MB-231 breast
[27] = tested on: MDA-MB-435
[28] = tested on: MDA-MB-468 breast
[29] = tested on: MOLT-4 leukemia
[30] = tested on: NCI-H226 lung
[31] = tested on: NCI-H23 lung
[32] = tested on: NCI-H460 lung
[33] = tested on: NCI-H522 lung
[34] = tested on: NCI/ADR-RES ovarian
[35] = tested on: OVCAR-3 ovarian
[36] = tested on: OVCAR-4 ovarian
[37] = tested on: OVCAR-5 ovarian
[38] = tested on: OVCAR-8 ovarian
[39] = tested on: PC-3 prostate
[40] = tested on: RPMI-8226 leukemia
[41] = tested on: RXF 393 renal
[42] = tested on: SF-268 CNS
[43] = tested on: SF-295 CNS
[44] = tested on: SF-539 CNS
[45] = tested on: SK-MEL-2 melanoma
[46] = tested on: SK-MEL-28 melanoma
[47] = tested on: SK-MEL-5 melanoma
[48] = tested on: SK-OV-3 ovarian
[49] = tested on: SN12C renal
[50] = tested on: SNB-19 CNS
[51] = tested on: SNB-75 CNS
[52] = tested on: SR leukemia
[53] = tested on: SW-620 colon
[54] = tested on: T-47D breast
[55] = tested on: TK-10 renal
[56] = tested on: U251 CNS
[57] = tested on: UACC-257 melanoma
[58] = tested on: UACC-62 melanoma
[59] = tested on: UO-31 renal

O=c1ccc(Cn2c(C(F)(F)F)cc3c(Cl)ncnc32)c[nH]1
GI50 [1]: 43.5 µM | TGI [1]: > 100 µM | GI50 [2]: > 100 µM | TGI [2]: > 100 µM | GI50 [3]: 64.8 µM | TGI [3]: > 100 µM | GI50 [4]: 22.2 µM | TGI [4]: > 100 µM | GI50 [5]: 14 µM | TGI [5]: 28.8 µM | GI50 [6]: 23.5 µM | TGI [6]: 99.4 µM | GI50 [7]: 4.32 µM | TGI [7]: > 100 µM | GI50 [8]: 86.6 µM | TGI [8]: > 100 µM | GI50 [9]: 38.7 µM | TGI [9]: > 100 µM | GI50 [10]: 14.2 µM | TGI [10]: 36 µM | GI50 [11]: 2.9 µM | TGI [11]: 10.1 µM | GI50 [12]: 3.51 µM | TGI [12]: 29.2 µM | GI50 [13]: 2.93 µM | TGI [13]: 14.9 µM | GI50 [14]: 2.1 µM | TGI [14]: 5.97 µM | GI50 [15]: 46.7 µM | TGI [15]: > 100 µM | GI50 [16]: 23 µM | TGI [16]: > 100 µM | GI50 [17]: 8.76 µM | TGI [17]: 50.4 µM | GI50 [18]: 29 µM | TGI [18]: > 100 µM | GI50 [19]: 2.29 µM | TGI [19]: 6.09 µM | GI50 [20]: 2.83 µM | TGI [20]: > 100 µM | GI50 [21]: 17.9 µM | TGI [21]: 40.3 µM | GI50 [22]: 1.65 µM | TGI [22]: 3.11 µM | GI50 [23]: 4.08 µM | TGI [23]: 22.1 µM | GI50 [24]: 15.9 µM | TGI [24]: 35 µM | GI50 [25]: 21.1 µM | TGI [25]: 67.9 µM | GI50 [26]: 4.65 µM | TGI [26]: 18.2 µM | GI50 [27]: 4.69 µM | TGI [27]: 20.5 µM | GI50 [28]: 2.1 µM | TGI [28]: 5.73 µM | GI50 [29]: 3.21 µM | TGI [29]: 17.2 µM | GI50 [30]: 31.7 µM | TGI [30]: > 100 µM | GI50 [31]: 3.97 µM | TGI [31]: 18.4 µM | GI50 [32]: 12 µM | TGI [32]: 36.2 µM | GI50 [33]: 2.05 µM | TGI [33]: 4.85 µM | GI50 [34]: 14.2 µM | TGI [34]: 40.3 µM | GI50 [35]: 14.9 µM | TGI [35]: 32.8 µM | GI50 [36]: 17.9 µM | TGI [36]: 44.6 µM | GI50 [37]: 61.7 µM | TGI [37]: > 100 µM | GI50 [38]: 3.51 µM | TGI [38]: 17.3 µM | GI50 [39]: 17.1 µM | TGI [39]: 55.8 µM | GI50 [40]: 23 µM | TGI [40]: > 100 µM | GI50 [41]: 11.2 µM | TGI [41]: 32.1 µM | GI50 [42]: 10.6 µM | TGI [42]: 28.9 µM | GI50 [43]: 28.2 µM | TGI [43]: > 100 µM | GI50 [44]: 17.3 µM | TGI [44]: 40.9 µM | GI50 [45]: 16.9 µM | TGI [45]: 32.6 µM | GI50 [46]: 3.9 µM | TGI [46]: 18.7 µM | GI50 [47]: 4.06 µM | TGI [47]: 15 µM | GI50 [48]: 44.3 µM | TGI [48]: > 100 µM | GI50 [49]: 6.42 µM | TGI [49]: 23.4 µM | GI50 [50]: 20.7 µM | TGI [50]: 59.4 µM | GI50 [51]: 10.7 µM | TGI [51]: 23.2 µM | GI50 [52]: 2.73 µM | TGI [52]: 11.8 µM | GI50 [53]: 5.55 µM | TGI [53]: 26.3 µM | GI50 [54]: 30.3 µM | TGI [54]: > 100 µM | GI50 [55]: > 100 µM | TGI [55]: > 100 µM | GI50 [56]: 22.5 µM | TGI [56]: 69.2 µM | GI50 [57]: 3.18 µM | TGI [57]: 12.9 µM | GI50 [58]: 5.55 µM | TGI [58]: 19.7 µM | GI50 [59]: 5.05 µM | TGI [59]: 19.2 µM
